Experimental findings from ChEMBL document CHEMBL4052702 (Bioorg Med Chem Lett, 2017) are described below.

The target of assay [1] is T1, Histone deacetylase 1 (Homo sapiens, UniProt Q13547). In words: Inhibition of HDAC1 (unknown origin) assessed as remaining enzyme activity at 4 x 10^-6 M by ELISA-based assay.
The nature of assay [2]: Inhibition of HDAC in human HeLa-S3 cells lysates pre-incubated for 15 mins before HDAC-Glo I/II substrate addition and measured after 30 mins post substrate addition. It counts as cell-based.
Assay [3] has as its target T1, Histone deacetylase 1. In words: Inhibition of HDAC1 (unknown origin) by ELISA-based assay.
Assay [4] concerns the target T2, Histone deacetylase 2 (Homo sapiens, UniProt Q92769). In words: Inhibition of HDAC2 (unknown origin) by ELISA-based assay.
Assay [5] addresses T3, Histone deacetylase 3 (Homo sapiens, UniProt O15379). Kind of assay: Inhibition of HDAC3 (unknown origin) by ELISA-based assay. A general note: ELISA stands for enzyme-linked immunosorbent assay.
In assay [6] the target is T4, Protein deacetylase HDAC6 (Homo sapiens, UniProt Q9UBN7).
T4 sequence (Q9UBN7 whole entry): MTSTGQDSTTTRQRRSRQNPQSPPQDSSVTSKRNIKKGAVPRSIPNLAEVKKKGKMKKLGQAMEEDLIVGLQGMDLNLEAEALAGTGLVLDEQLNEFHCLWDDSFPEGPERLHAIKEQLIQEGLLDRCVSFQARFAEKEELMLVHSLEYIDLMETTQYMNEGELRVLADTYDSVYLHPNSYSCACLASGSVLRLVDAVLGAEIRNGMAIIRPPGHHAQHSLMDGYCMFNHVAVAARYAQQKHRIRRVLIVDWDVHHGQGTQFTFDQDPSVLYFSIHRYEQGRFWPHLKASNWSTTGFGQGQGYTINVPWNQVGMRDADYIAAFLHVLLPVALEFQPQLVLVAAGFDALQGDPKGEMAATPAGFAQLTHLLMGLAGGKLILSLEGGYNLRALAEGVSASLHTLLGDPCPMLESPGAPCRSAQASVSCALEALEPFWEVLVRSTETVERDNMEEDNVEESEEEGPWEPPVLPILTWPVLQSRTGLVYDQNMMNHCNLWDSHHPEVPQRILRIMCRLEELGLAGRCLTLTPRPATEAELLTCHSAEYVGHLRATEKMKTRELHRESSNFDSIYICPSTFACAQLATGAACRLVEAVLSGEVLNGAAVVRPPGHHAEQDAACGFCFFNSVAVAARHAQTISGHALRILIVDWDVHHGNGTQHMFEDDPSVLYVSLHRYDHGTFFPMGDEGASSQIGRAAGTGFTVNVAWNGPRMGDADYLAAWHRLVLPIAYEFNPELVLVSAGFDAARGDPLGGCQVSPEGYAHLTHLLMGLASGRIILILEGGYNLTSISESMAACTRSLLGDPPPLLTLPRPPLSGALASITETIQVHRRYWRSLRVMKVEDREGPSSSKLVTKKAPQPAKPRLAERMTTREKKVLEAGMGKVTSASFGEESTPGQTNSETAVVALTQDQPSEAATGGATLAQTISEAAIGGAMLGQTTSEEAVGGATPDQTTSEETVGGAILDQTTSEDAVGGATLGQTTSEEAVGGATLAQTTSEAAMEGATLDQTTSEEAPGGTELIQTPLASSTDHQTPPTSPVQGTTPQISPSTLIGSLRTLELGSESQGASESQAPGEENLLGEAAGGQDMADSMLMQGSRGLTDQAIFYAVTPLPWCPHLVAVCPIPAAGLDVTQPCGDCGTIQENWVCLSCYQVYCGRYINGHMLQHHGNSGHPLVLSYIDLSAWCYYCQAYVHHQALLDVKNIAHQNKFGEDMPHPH
In words: Inhibition of HDAC6 (unknown origin) by ELISA-based assay.

Another assay concerns the target T5, Histone deacetylase 8 (Homo sapiens, UniProt Q9BY41).
T5 sequence (Q9BY41 whole entry): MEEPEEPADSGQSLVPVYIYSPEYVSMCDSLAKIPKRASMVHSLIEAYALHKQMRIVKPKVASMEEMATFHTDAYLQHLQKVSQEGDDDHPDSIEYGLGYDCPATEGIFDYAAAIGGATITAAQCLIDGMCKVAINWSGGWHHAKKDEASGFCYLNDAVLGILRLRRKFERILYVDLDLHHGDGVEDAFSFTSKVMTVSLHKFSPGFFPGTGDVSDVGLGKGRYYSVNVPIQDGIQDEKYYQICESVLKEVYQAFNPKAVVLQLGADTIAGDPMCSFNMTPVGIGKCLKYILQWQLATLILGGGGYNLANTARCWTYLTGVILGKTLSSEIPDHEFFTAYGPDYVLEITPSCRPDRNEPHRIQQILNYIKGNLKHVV
In words: Inhibition of HDAC8 (unknown origin) by ELISA-based assay.

Assay [7] deals with T1, Histone deacetylase 1. Kind of assay: Inhibition of HDAC1 (unknown origin) assessed as remaining enzyme activity at 2 x 10^-6 M by ELISA-based assay.
Assay [8] concerns the target T2, Histone deacetylase 2. Kind of assay: Inhibition of HDAC2 (unknown origin) assessed as remaining enzyme activity at 4 x 10^-6 M by ELISA-based assay.
Assay [9] concerns the target T2, Histone deacetylase 2. Kind of assay: Inhibition of HDAC2 (unknown origin) assessed as remaining enzyme activity at 2 x 10^-6 M by ELISA-based assay.
The target in assay [10] is T3, Histone deacetylase 3. Kind of assay: Inhibition of HDAC3 (unknown origin) assessed as remaining enzyme activity at 4 x 10^-6 M by ELISA-based assay.
Assay [11] addresses T3, Histone deacetylase 3. Kind of assay: Inhibition of HDAC3 (unknown origin) assessed as remaining enzyme activity at 2 x 10^-6 M by ELISA-based assay.
Assay [12] addresses T6, Protein deacetylase HDAC6 (Homo sapiens) (UniProt Q9UBN7).
T6 sequence (whole entry): T4 sequence (Q9UBN7 whole entry)
Kind of assay: Inhibition of HDAC6 (unknown origin) assessed as remaining enzyme activity at 8 x 10^-7 M by ELISA-based assay.

Assay [13] has as its target T6, Protein deacetylase HDAC6 (Homo sapiens). Kind of assay: Inhibition of HDAC6 (unknown origin) assessed as remaining enzyme activity at 4 x 10^-7 M by ELISA-based assay.
Assay [14] has the same target. In words: Inhibition of HDAC6 (unknown origin) assessed as remaining enzyme activity at 2 x 10^-7 M by ELISA-based assay.
The target is the same in assay [15]. Kind of assay: Inhibition of HDAC6 (unknown origin) assessed as remaining enzyme activity at 1 x 10^-7 M by ELISA-based assay.
The target is the same in assay [16]. Kind of assay: Inhibition of HDAC6 (unknown origin) assessed as remaining enzyme activity at 5 x 10^-8 M by ELISA-based assay.
Assay [17] addresses T7, Histone deacetylase 8 (Homo sapiens) (UniProt Q9BY41).
T7 sequence (whole entry): T5 sequence (Q9BY41 whole entry)
In words: Inhibition of HDAC8 (unknown origin) assessed as remaining enzyme activity at 1.6 x 10^-6 M by ELISA-based assay.

For assay [18], the target named is T7, Histone deacetylase 8 (Homo sapiens). In words: Inhibition of HDAC8 (unknown origin) assessed as remaining enzyme activity at 8 x 10^-7 M by ELISA-based assay.
The target is the same in assay [19]. Kind of assay: Inhibition of HDAC8 (unknown origin) assessed as remaining enzyme activity at 4 x 10^-7 M by ELISA-based assay.
The target is the same in assay [20]. In words: Inhibition of HDAC8 (unknown origin) assessed as remaining enzyme activity at 1 x 10^-7 M by ELISA-based assay.
Assay [21] has as its system Jurkat. In words: cells. The format is functional. The settings on record: Homo sapiens, 44 h.
The subject of assay [22] is Jurkat. In words: cells. The format is functional. The settings on record: Homo sapiens, 44 h. This is another data set of the same source.

T3 sequence (O15379 whole entry): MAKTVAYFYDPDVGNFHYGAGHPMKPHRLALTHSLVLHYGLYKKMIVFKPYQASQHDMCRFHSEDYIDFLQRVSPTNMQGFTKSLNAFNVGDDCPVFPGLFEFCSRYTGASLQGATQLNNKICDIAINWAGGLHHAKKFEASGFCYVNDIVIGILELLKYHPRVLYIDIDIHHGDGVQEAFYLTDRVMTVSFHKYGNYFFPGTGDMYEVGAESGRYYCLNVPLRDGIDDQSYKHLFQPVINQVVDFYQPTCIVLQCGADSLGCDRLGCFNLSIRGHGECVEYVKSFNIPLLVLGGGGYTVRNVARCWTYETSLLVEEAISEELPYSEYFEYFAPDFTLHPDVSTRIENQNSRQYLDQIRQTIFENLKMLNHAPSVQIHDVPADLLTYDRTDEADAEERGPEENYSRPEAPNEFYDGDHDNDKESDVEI
T2 sequence (Q92769 whole entry): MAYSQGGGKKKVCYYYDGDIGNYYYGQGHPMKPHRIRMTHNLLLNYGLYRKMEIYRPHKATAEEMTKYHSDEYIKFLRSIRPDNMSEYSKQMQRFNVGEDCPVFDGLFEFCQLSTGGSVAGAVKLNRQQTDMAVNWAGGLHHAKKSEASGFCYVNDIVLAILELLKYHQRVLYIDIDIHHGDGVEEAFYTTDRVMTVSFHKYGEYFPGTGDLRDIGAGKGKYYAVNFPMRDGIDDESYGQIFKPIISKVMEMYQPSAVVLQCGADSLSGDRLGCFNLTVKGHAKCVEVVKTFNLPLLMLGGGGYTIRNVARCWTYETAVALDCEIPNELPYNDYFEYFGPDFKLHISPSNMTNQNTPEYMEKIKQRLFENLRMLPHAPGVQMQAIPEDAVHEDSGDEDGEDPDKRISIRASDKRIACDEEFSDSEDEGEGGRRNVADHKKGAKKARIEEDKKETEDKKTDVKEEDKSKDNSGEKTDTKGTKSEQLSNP
T1 sequence (Q13547 whole entry): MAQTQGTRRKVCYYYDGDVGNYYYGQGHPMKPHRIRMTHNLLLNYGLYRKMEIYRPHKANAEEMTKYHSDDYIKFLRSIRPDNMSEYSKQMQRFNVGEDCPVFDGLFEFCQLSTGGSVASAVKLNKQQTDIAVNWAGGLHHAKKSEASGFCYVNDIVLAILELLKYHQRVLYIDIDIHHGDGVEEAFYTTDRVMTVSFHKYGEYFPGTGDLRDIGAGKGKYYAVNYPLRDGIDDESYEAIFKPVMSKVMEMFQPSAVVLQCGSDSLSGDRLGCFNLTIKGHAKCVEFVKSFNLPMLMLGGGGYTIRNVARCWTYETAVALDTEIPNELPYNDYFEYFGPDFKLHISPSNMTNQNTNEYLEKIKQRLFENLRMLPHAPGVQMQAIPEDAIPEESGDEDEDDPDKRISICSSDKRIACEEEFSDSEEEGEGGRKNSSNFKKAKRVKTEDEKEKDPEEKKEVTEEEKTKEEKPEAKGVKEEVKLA

As to `O=C(CCCC(CCC(=O)Nc1ccccc1)Cc1ccccc1)NO` (centres undefined), the Activity at Histone deacetylase 1 [1] is 45%; at Histone deacetylase 1 [7], 54%; on Histone deacetylase 2 [8], 49%; on Histone deacetylase 2 [9] it was 62%; at Histone deacetylase 3 [10] it was 53%; at Histone deacetylase 3 [11] it was 85%. Further, the Activity in assay [12] is 26%; in [13], 43%; in assay [14], 54%; in [15], 76%; in [16], 83%; in assay [17], 19%. Besides, the Activity in [18] stood at 33%; in assay [19], 47%; in assay [20], 82%. The IC50 (in general, the concentration that gives 50% inhibition) in assay [2] was found to be 6.2 µM; against Histone deacetylase 1 [3], 2.9 µM; against Histone deacetylase 2 [4], 3.5 µM; on Histone deacetylase 3 [5] it was 5.8 µM; in assay [6], 0.27 µM; against Histone deacetylase 8 it was 0.38 µM. Besides, in the assay on Jurkat [21], the viability (commonly a read-out of living cells in per cent, often relative to untreated cells) at 1 µM is 71%. In the assay with Jurkat [22], the viability at 10 µM is 50%.

For `CCCCCCC(CCCC(=O)NO)CCC(=O)Nc1ccccc1` (centres undefined), the Activity was 37% on Histone deacetylase 1 [1]; 54% on Histone deacetylase 1 [7]; 41% on Histone deacetylase 2 [8]; 57% at Histone deacetylase 2 [9]; 39% on Histone deacetylase 3 [10]; 67% on Histone deacetylase 3 [11]. For the same compound, the Activity in assay [12] came out at 34%; in assay [13], 54%; in [14] it was 66%; in [15], 69%; in assay [16], 82%; in assay [17], 21%. Also, the Activity in assay [18] came out at 35%; in [19], 51%; in assay [20], 78%. In addition, the IC50 in assay [2] was 6.5 µM; on Histone deacetylase 1 [3] it was 2.1 µM; at Histone deacetylase 2 [4], 2.5 µM; on Histone deacetylase 3 [5] it was 2.9 µM; in assay [6], 0.41 µM; on Histone deacetylase 8, 0.42 µM. Also, the viability at 1 µM in the assay on Jurkat [21] was 101%. Besides, the viability at 10 µM in the assay with Jurkat [22] came out at 24%.

For `CCCCC(CCCC(=O)NO)CCC(=O)Nc1ccccc1` (centres undefined), the Activity at Histone deacetylase 1 [1] is 18%; on Histone deacetylase 1 [7], 37%; on Histone deacetylase 2 [8], 25%; on Histone deacetylase 2 [9] it was 38%; at Histone deacetylase 3 [10], 27%; at Histone deacetylase 3 [11], 44%. Besides, the Activity was 28% in assay [12]; 48% in assay [13]; 60% in [14]; 70% in [15]; 90% in assay [16]; 22% in assay [17]. The Activity stood at 35% in [18], 50% in assay [19] and 83% in assay [20]. Also, the IC50 in assay [2] stood at 5 µM; at Histone deacetylase 1 [3], 1.1 µM; on Histone deacetylase 2 [4], 1.3 µM; on Histone deacetylase 3 [5] it was 1.6 µM; in assay [6], 0.32 µM; on Histone deacetylase 8, 0.43 µM. Also, the viability at 1 µM in the assay on Jurkat [21] is 67%. The viability at 10 µM with Jurkat [22] amounted to 39%.
